US20040028714A1, “Composition having insect repellent characteristics” (priority 2000, published 2004)
Values joined by “and” are separate entries in the source; they are usually repeats but may differ in a detail not shown here. Equal values may be shown once.

Legend:
Type in all cases: in vivo
[1] = system: German cockroaches (Blatella Germanica); assay: Cockroach repellency screening on partially treated formica surface (Example 2); conditions: 20 mg/m^2 on formica; for Number of Cockroaches present, Treated Section / Number of Cockroaches present, Untreated Section / Number of Cockroaches, Dead: single replicates (n = 20); for Number of Cockroaches present, Treated Section, Total / Number of Cockroaches present, Untreated Section, Total / Number of Cockroaches, Dead, Total: total of 4 replicates (80); for Percentage Dead / Percentage Present, Treated Section / Percentage Present, Untreated Section / Percentage Present, Treated Section, Average / Percentage Present, Untreated Section, Average: cockroaches; for Percentage Present, Treated Section, Average / Percentage Present, Untreated Section, Average: average of days 1, 2 and 3
Experimental: The effectiveness of compounds of formula I as an insect repellent was determined using German cockroaches exposed to a formica surface partially treated/partially untreated with a test compound of formula I. The study was conducted in an air conditioned laboratory at a temperature of 22°±2° C. under a normal day/night cycle, using German cockroaches (Blatella Germanica) of mixed sex and age. The study was conducted over a 3 day period and the repellent effectiveness assessed 1, 2 and 3 days after cockroach introduction. A rectangle of formica 40 cm×30 cm was treated at 20 mg/m^2 with a test compound of formula I. This was achieved by soaking a paper wipe (Rag on a Roll ca 20 cm×20 cm) in a solution of the test compound in ethanol, squeezing out the excess liquid and wiping over the surface to give the required coverage. This was checked by weighing the cloth after application. The surface was allowed to dry. A similar rectangle was wiped with ethanol alone (untreated surface). The treated formica rectangle was placed on the bench and a plastic container was placed on the rectangle. This had been treated with fluon to prevent cockroach escape. Two sheets of formica (10 cm×10 cm) were placed on the formica, one on the treated surface and one on the untreated surface. This acted as a cockroach harbourage. The formica sheet to be used in the treated section was treated at the same rate as the treated formica. The formica was placed on two 1 cm high bottle tops to allow cockroaches access under the formica. 20 German cockroaches were added (5 adults and 15 nymphs) to the centre of the formica. No food and water was supplied for these cockroaches. At 1, 2 and 3 days after cockroach introduction the number of cockroaches under each harbourage was counted. After each count the harbourage position was change to avoid the possibility of […] were replaced and new cockroaches were added to replace any dead cockroaches. The above was repeated 3 times to provide a total of 4 replicates.

[2] = system: German cockroaches (Blatella Germanica); assay: Cockroach repellency in tray with half-treated vinyl, compared with DEET and N-methyl-neodecanamide (Example 3); conditions: cockroaches, 20 mg/m^2 on vinyl
Experimental: The effectiveness of compound 2 (example 1) as an insect repellent was determined using German cockroaches exposed to a formica surface partially treated/partially un-treated, and was directly compared to the repellency of the well known insect repellents DEET (N,N-diethyl-meta-toluamide) and N-methyl-neodecanamide. The study was conducted in an air conditioned laboratory at a temperature of 22°±2° C. under a normal day/night cycle, using German cockroaches (Blatella Germanica) of mixed sex and age. The study was conducted over a 7 days period and the repellent effectiveness was assessed 1, 3, 5 and 7 days after cockroach introduction. Each tray used in the study consisted of a melamine square tray of sides 1.8m×1.8m and 20 cm high walls. The upper part of the wall was provided with electrical strip, which prevented cockroaches escaping. A square of vinyl 90 cm×180 cm was treated with the test compound at 20 mg/m^2. This was achieved by soaking a paper wipe (Rag on a Roll, ca. 20 cm×20 cm) in a solution of the test compound in ethanol, squeezing out the excess liquid and wiping over the surface to give the required coverage. This was checked by weighing the cloth after application. The surface was allowed to dry. The treated vinyl square was placed in one half of the tray. A similar untreated square was placed in the other half of the tray. This square was treated with ethanol alone. Two sheets of formica (30 cm×30 cm) were placed at one corner of each tray, one on the treated surface and one on the untreated surface. This acted as a cockroach harbourage. The formica sheet to be used in the treated section was treated at the same rate as the treated formica. The formica was placed on two 1 cm high bottle tops to allow cockroaches access under the formica. 50 German cockroaches were added (15 adults and 35 nymphs) to the middle of the tray. No food and water was supplied for these cockroaches. At 1, 2, 3 and 7 days after cockroach introduction the number of cockroaches under each harbourage was counted. After each count the harbourage position was change to avoid the possibility of habituation to one location, the harbourages were replaced and new cockroaches were added to replace any dead cockroaches. The above was repeated 3 times to provide a total of 4 replicates.

[3] = system: Black Ants (Ochetellus sp); assay: Ant repellency on half-treated formica (Example 4); conditions: ants, 20 mg/m^2 on formica
Experimental: The effectiveness of compound 2 (example 1) as an insect repellent was determined using ants exposed to a formica surface partially treated/partially untreated with compound 2, and was directly compared to the repellency of the well known insect repellents Farnesol and Dihydrofarnesal.
The study was conducted in an air conditioned laboratory at a temperature of 22°±2° C. under a normal day/night cycle, using Black Ants (Ochetellus sp) of mixed sex and age. The study ws conducted over a 3 day period and the repellent effectiveness assessed 1, 2 and 3 days after ant introduction.
One half of a rectangle of formica 40 cm×30 cm was treated at 20 mg/m^2 with the test compounds. This was achieved by soaking a paper wipe (Rag On A Roll approximately 20 cm×20 cm) in a solution of the test compound in ethanol, squeezing out the excess liquid and wiping over the surface to give the required coverage. This was checked by weighing the cloth after application. The surface was allowed to dry. The other half was wiped with ethanol alone (untreated surface).
The treated formica rectangle was placed on the bench and a glass ring (diameter 20 cm) was placed on the rectangle. This had been treated with fluon to prevent ant escape.
A small plastic container 2 cm in diameter was placed on the formica, one on the treated surface and one on the untreated surface. The plastic container placed on the treated surface had repellent applied in the same way as the treated formica. The plastic container on the untreated surface was wiped with ethanol.
24 hours after treatment (1 day) 20 ants were added to the centre of the formica. No food and water was supplied for these ants. 2 hours after this the number of ants on the treated and untreated surfaces was counted.
The above was repeated 3 times to provide a total of 4 replicates.
The above was repeated at 2 days and 3 days. New ants were used at each time period.

[4] = 1 day after cockroach introduction
[5] = 2 days after cockroach introduction
[6] = 3 days after cockroach introduction

CNC(=O)C1CC(C)CCC1C(C)C (centres unmarked) [Compound 1, N-methyl-p-menthane-3-carboxamide]
Number of Cockroaches present, Treated Section [1, 4]: 5 and 3 and 7 and 0
Number of Cockroaches present, Untreated Section [1, 4]: 15 and 17 and 13 and 20
Number of Cockroaches, Dead [1, 4]: 0
Number of Cockroaches present, Treated Section, Total [1, 4]: 15
Number of Cockroaches present, Untreated Section, Total [1, 4]: 65
Number of Cockroaches, Dead, Total [1, 4]: 0
Number of Cockroaches present, Treated Section [1, 5]: 5 (2×) and 3 and 0
Number of Cockroaches present, Untreated Section [1, 5]: 15 and 17 and 14 and 20
Number of Cockroaches, Dead [1, 5]: 0 (3×) and 1
Number of Cockroaches present, Treated Section, Total [1, 5]: 13
Number of Cockroaches present, Untreated Section, Total [1, 5]: 66
Number of Cockroaches, Dead, Total [1, 5]: 1
Number of Cockroaches present, Treated Section [1, 6]: 4 (2×) and 3 and 0
Number of Cockroaches present, Untreated Section [1, 6]: 16 (3×) and 20
Number of Cockroaches, Dead [1, 6]: 0 (3×) and 1
Number of Cockroaches present, Treated Section, Total [1, 6]: 11
Number of Cockroaches present, Untreated Section, Total [1, 6]: 68
Number of Cockroaches, Dead, Total [1, 6]: 1
Percentage Dead ([1]; 1 day after treatment): 0%
Percentage Present, Treated Section ([1]; 1 day after treatment): 18.7%
Percentage Present, Untreated Section ([1]; 1 day after treatment): 81.3%
Percentage Dead ([1]; 2 days after treatment): 1.2%
Percentage Present, Treated Section ([1]; 2 days after treatment): 16.3%
Percentage Present, Untreated Section ([1]; 2 days after treatment): 82.5%
Percentage Dead ([1]; 3 days after treatment): 1.2%
Percentage Present, Treated Section ([1]; 3 days after treatment): 13.8%
Percentage Present, Untreated Section ([1]; 3 days after treatment): 85.0%
Percentage Present, Treated Section, Average [1]: 16.3%
Percentage Present, Untreated Section, Average [1]: 82.9%

CCCNC(=O)C1CC(C)CCC1C(C)C (centres unmarked) [Compound 3, N-propyl-p-menthane-3-carboxamide]
Percentage Dead ([1]; 1 day after treatment): 0%
Percentage Present, Treated Section ([1]; 1 day after treatment): 16.3%
Percentage Present, Untreated Section ([1]; 1 day after treatment): 83.7%
Percentage Dead ([1]; 2 days after treatment): 1.2%
Percentage Present, Treated Section ([1]; 2 days after treatment): 6.3%
Percentage Present, Untreated Section ([1]; 2 days after treatment): 92.5%
Percentage Dead ([1]; 3 days after treatment): 0%
Percentage Present, Treated Section ([1]; 3 days after treatment): 6.3%
Percentage Present, Untreated Section ([1]; 3 days after treatment): 93.7%
Percentage Present, Treated Section, Average [1]: 9.6%
Percentage Present, Untreated Section, Average [1]: 90.0%

CC1CCC(C(C)C)C(C(=O)Nc2ccccc2)C1 (centres unmarked) [Compound 4, N-phenyl-p-menthane-3-carboxamide]
Percentage Dead ([1]; 1 day after treatment): 0%
Percentage Present, Treated Section ([1]; 1 day after treatment): 46.3%
Percentage Present, Untreated Section ([1]; 1 day after treatment): 53.7%
Percentage Dead ([1]; 2 days after treatment): 0%
Percentage Present, Treated Section ([1]; 2 days after treatment): 35.0%
Percentage Present, Untreated Section ([1]; 2 days after treatment): 65.0%
Percentage Dead ([1]; 3 days after treatment): 1.2%
Percentage Present, Treated Section ([1]; 3 days after treatment): 12.5%
Percentage Present, Untreated Section ([1]; 3 days after treatment): 86.3%
Percentage Present, Treated Section, Average [1]: 31.3%
Percentage Present, Untreated Section, Average [1]: 68.3%

CC1CCC(C(C)C)C(C(=O)N(C)C)C1 (centres unmarked) [Compound 5, N,N-dimethyl-p-menthane-3-carboxamide]
Percentage Dead ([1]; 1 day after treatment): 0%
Percentage Present, Treated Section ([1]; 1 day after treatment): 15.0%
Percentage Present, Untreated Section ([1]; 1 day after treatment): 85.0%
Percentage Dead ([1]; 2 days after treatment): 1.2%
Percentage Present, Treated Section ([1]; 2 days after treatment): 10.0%
Percentage Present, Untreated Section ([1]; 2 days after treatment): 88.8%
Percentage Dead ([1]; 3 days after treatment): 1.2%
Percentage Present, Treated Section ([1]; 3 days after treatment): 15.0%
Percentage Present, Untreated Section ([1]; 3 days after treatment): 83.8%
Percentage Present, Treated Section, Average [1]: 13.3%
Percentage Present, Untreated Section, Average [1]: 85.9%

CCN(CC)C(=O)C1CC(C)CCC1C(C)C (centres unmarked) [Compound 6, N,N-diethyl-p-menthane-3-carboxamide]
Percentage Dead ([1]; 1 day after treatment): 0%
Percentage Present, Treated Section ([1]; 1 day after treatment): 11.3%
Percentage Present, Untreated Section ([1]; 1 day after treatment): 88.7%
Percentage Dead ([1]; 2 days after treatment): 0%
Percentage Present, Treated Section ([1]; 2 days after treatment): 13.8%
Percentage Present, Untreated Section ([1]; 2 days after treatment): 86.2%
Percentage Dead ([1]; 3 days after treatment): 2.5%
Percentage Present, Treated Section ([1]; 3 days after treatment): 6.3%
Percentage Present, Untreated Section ([1]; 3 days after treatment): 91.2%
Percentage Present, Treated Section, Average [1]: 10.5%
Percentage Present, Untreated Section, Average [1]: 88.7%

CCN(CC)C(=O)c1cccc(C)c1 [DEET, N,N-diethyl-meta-toluamide, reference compound]
Percentage Dead ([2]; 1 day after treatment): 0.5%
Percentage Present, Treated Section ([2]; 1 day after treatment): 3.0%
Percentage Present, Untreated Section ([2]; 1 day after treatment): 96.5%
Percentage Dead ([2]; 2 days after treatment): 1.5%
Percentage Present, Treated Section ([2]; 2 days after treatment): 2.5%
Percentage Present, Untreated Section ([2]; 2 days after treatment): 96.0%
Percentage Dead ([2]; 3 days after treatment): 0.5%
Percentage Present, Treated Section ([2]; 3 days after treatment): 27.5%
Percentage Present, Untreated Section ([2]; 3 days after treatment): 72.0%
Percentage Dead ([2]; 7 days after treatment): 1.0%
Percentage Present, Treated Section ([2]; 7 days after treatment): 55.0%
Percentage Present, Untreated Section ([2]; 7 days after treatment): 44.0%

CC(C)=CCC/C(C)=C/CCC(C)CC=O (centres unmarked) [Dihydrofarnesal, reference compound]
Percentage Dead ([3]; 1 day after treatment): 0%
Percentage Present, Treated Section ([3]; 1 day after treatment): 20.0%
Percentage Present, Untreated Section ([3]; 1 day after treatment): 80.0%
Percentage Dead ([3]; 2 days after treatment): 0%
Percentage Present, Treated Section ([3]; 2 days after treatment): 21.2%
Percentage Present, Untreated Section ([3]; 2 days after treatment): 78.8%
Percentage Dead ([3]; 3 days after treatment): 0%
Percentage Present, Treated Section ([3]; 3 days after treatment): 12.5%
Percentage Present, Untreated Section ([3]; 3 days after treatment): 87.5%
Percentage Dead, Average ([3]; average of days 1, 2 and 3): 0%
Percentage Present, Treated Section, Average ([3]; average of days 1, 2 and 3): 17.9%
Percentage Present, Untreated Section, Average ([3]; average of days 1, 2 and 3): 82.1%
Percentage Present, Treated Section, Average ([3]; average of days 1, 2 and 3, listed as Dihydrofarnesol): approximately 17%
